Holding throughout (type): functional
The test system of experiment [1] is Escherichia coli. The experiment in a line: The compound was tested in vitro for antibacterial activity against Escherichia coli 250 UCS.
For experiment [2], the system named is Haemophilus influenzae. The experiment is described as follows: The compound was tested in vitro for antibacterial activity against Haemophilus influenza 351HT3.
Experiment [3] concerns Staphylococcus aureus. The experiment is described as follows: The compound was tested in vitro for antibacterial activity against erythromycin susceptible Staphylococcus aureus 011UC4.
Experiment [4] has as its system Staphylococcus aureus. The experiment in a line: The compound was tested in vitro for antibacterial activity against inducibly erythromycin resistant Staphylococcus aureus 011GO25i.
In experiment [5] the test system is Streptococcus pneumoniae. The experiment is described as follows: The compound was tested in vitro for antibacterial activity against constitutively erythromycin resistant Streptococcus pneumoniae 030CR18c.
The test system of experiment [6] is Streptococcus pneumoniae. The experiment is described as follows: The compound was tested in vitro for antibacterial activity against constitutively erythromycin resistant Streptococcus pneumoniae 030PW23c.
Experiment [7] has as its system Streptococcus pneumoniae. The experiment in a line: The compound was tested in vitro for antibacterial activity against constitutively erythromycin resistant Streptococcus pneumoniae 030SJ1.
The subject of experiment [8] is Streptococcus pneumoniae. The experiment is described as follows: The compound was tested in vitro for antibacterial activity against erythromycin susceptible Streptococcus pneumoniae 032UC1.
Experiment [9] deals with Staphylococcus aureus. The experiment in a line: The compound was tested in vitro for antibacterial activity against constitutively erythromycin resistant Staphylococcus aureus 011CB20.
The test system of experiment [10] is Streptococcus pyogenes. The experiment in a line: The compound was tested in vitro for antibacterial activity against erythromycin susceptible Streptococcus pyogenes 02A1UC1.
Experiment [11] deals with Streptococcus pneumoniae. The experiment is described as follows: The compound was tested in vitro for antibacterial activity against inducibly erythromycin resistant Streptococcus pneumoniae 030J5i.
Experiment [12] has as its system Escherichia coli. The experiment is described as follows: The compound was tested in vitro for antibacterial activity against Escherichia coli 250 UCS.
Experiment [13] relates to Haemophilus influenzae. The experiment is described as follows: The compound was tested in vitro for antibacterial activity against Haemophilus influenza 351HT3.
In experiment [14] the test system is Staphylococcus aureus. The experiment is described as follows: The compound was tested in vitro for antibacterial activity against erythromycin susceptible Staphylococcus aureus 011UC4.
The test system of experiment [15] is Staphylococcus aureus. The experiment in a line: The compound was tested in vitro for antibacterial activity against inducibly erythromycin resistant Staphylococcus aureus 011GO25i.
Experiment [16] relates to Streptococcus pneumoniae. The experiment in a line: The compound was tested in vitro for antibacterial activity against constitutively erythromycin resistant Streptococcus pneumoniae 030CR18c.
Experiment [17] deals with Streptococcus pneumoniae. The experiment is described as follows: The compound was tested in vitro for antibacterial activity against constitutively erythromycin resistant Streptococcus pneumoniae 030PW23c.
Experiment [18] deals with Streptococcus pneumoniae. The experiment is described as follows: The compound was tested in vitro for antibacterial activity against constitutively erythromycin resistant Streptococcus pneumoniae 030SJ1.
In experiment [19] the test system is Streptococcus pyogenes. The experiment in a line: The compound was tested in vitro for antibacterial activity against erythromycin susceptible Streptococcus pyogenes 02A1UC1.
The subject of experiment [20] is Staphylococcus aureus. The experiment is described as follows: The compound was tested in vitro for antibacterial activity against constitutively erythromycin resistant Staphylococcus aureus 011CB20.
For experiment [21], the system named is Streptococcus pneumoniae. The experiment is described as follows: The compound was tested in vitro for antibacterial activity against inducibly erythromycin resistant Streptococcus pneumoniae 030J5i.
Experiment [22] relates to Streptococcus pneumoniae. The experiment in a line: The compound was tested in vitro for antibacterial activity against erythromycin susceptible Streptococcus pneumoniae 032UC1.

Each structure is given as a SMILES string. Values after ≈ are worked out from the molar mass of the structure shown.

Turning to `CC[C@H]1OC(=O)[C@H](C)C(=O)[C@H](C)[C@@H](O[C@@H]2O[C@H](C)C[C@H](N(C)C)[C@H]2O)[C@](C)(OC)C[C@@H](C)C(=O)[C@H](C)[C@H]2N(CCCCn3nnnc3-c3ccccc3)C(=O)O[C@]12C`, the MIC with Escherichia coli [1] was determined as 20 µg/mL (≈ 24.6 µM); against Haemophilus influenzae [2] it was 1.2 µg/mL (≈ 1.48 µM); against Staphylococcus aureus [3], 0.02 µg/mL (≈ 0.0246 µM); in the experiment on Staphylococcus aureus [4], 0.6 µg/mL (≈ 0.738 µM); against Streptococcus pneumoniae [5] it was 1.2 µg/mL (≈ 1.48 µM); against Streptococcus pneumoniae [6], 0.6 µg/mL (≈ 0.738 µM). Also, the MIC against Streptococcus pneumoniae [7] stood at 0.3 µg/mL (≈ 0.369 µM); with Streptococcus pneumoniae [8], 0.02 µg/mL (≈ 0.0246 µM); in the experiment on Staphylococcus aureus [9], 40 µg/mL (≈ 49.2 µM); in the experiment with Streptococcus pyogenes [10], 0.02 µg/mL (≈ 0.0246 µM); in the experiment on Streptococcus pneumoniae [11], 0.02 µg/mL (≈ 0.0246 µM).

In the case of `CC[C@H]1OC(=O)[C@H](C)C(=O)[C@H](C)[C@@H](O[C@@H]2O[C@H](C)C[C@H](N(C)C)[C@H]2O)[C@](C)(OC)C[C@@H](C)C(=O)[C@H](C)[C@H]2N(CCCCc3ccnc4ccccc34)C(=O)O[C@]12C`, the MIC in the experiment on Escherichia coli [12] was 40 µg/mL (≈ 50.3 µM); with Haemophilus influenzae [13], 1.2 µg/mL (≈ 1.51 µM); in the experiment with Staphylococcus aureus [14], 0.04 µg/mL (≈ 0.0503 µM); in the experiment on Staphylococcus aureus [15], 0.08 µg/mL (≈ 0.101 µM); in the experiment with Streptococcus pneumoniae [16] it was 1.2 µg/mL (≈ 1.51 µM); against Streptococcus pneumoniae [17], 1.2 µg/mL (≈ 1.51 µM). Moreover, the MIC with Streptococcus pneumoniae [18] turned out to be 1.2 µg/mL (≈ 1.51 µM); with Streptococcus pyogenes [19] it was 0.02 µg/mL (≈ 0.0251 µM); against Staphylococcus aureus [20], 40 µg/mL (≈ 50.3 µM); against Streptococcus pneumoniae [21] it was 0.02 µg/mL (≈ 0.0251 µM); with Streptococcus pneumoniae [22] it was 0.02 µg/mL (≈ 0.0251 µM).

As for `CC[C@H]1OC(=O)[C@H](C)C(=O)[C@H](C)[C@@H](O[C@@H]2O[C@H](C)C[C@H](N(C)C)[C@H]2O)[C@](C)(OC)C[C@@H](C)C(=O)[C@H](C)[C@H]2N(CCCCn3cnc(-c4ccccc4)n3)C(=O)O[C@]12C`, the MIC in the experiment on Escherichia coli [1] was found to be 40 µg/mL (≈ 49.3 µM); against Haemophilus influenzae [2], 1.2 µg/mL (≈ 1.48 µM); with Staphylococcus aureus [3] it was 0.02 µg/mL (≈ 0.0246 µM); against Staphylococcus aureus [4], 0.15 µg/mL (≈ 0.185 µM); in the experiment with Streptococcus pneumoniae [5] it was 1.2 µg/mL (≈ 1.48 µM); against Streptococcus pneumoniae [6], 1.2 µg/mL (≈ 1.48 µM). Besides, the MIC worked out at 0.6 µg/mL (≈ 0.739 µM) against Streptococcus pneumoniae [7]; 0.04 µg/mL (≈ 0.0493 µM) in the experiment with Streptococcus pneumoniae [8]; 40 µg/mL (≈ 49.3 µM) against Staphylococcus aureus [9]; 0.02 µg/mL (≈ 0.0246 µM) in the experiment on Streptococcus pyogenes [10]; 0.3 µg/mL (≈ 0.369 µM) with Streptococcus pneumoniae [11].

In the case of `CC[C@H]1OC(=O)[C@H](C)C(=O)[C@H](C)[C@@H](O[C@@H]2O[C@H](C)C[C@H](N(C)C)[C@H]2OC(C)=O)[C@](C)(OC)C[C@@H](C)C(=O)/C(C)=C/[C@]1(C)OC(=O)n1ccnc1`, the MIC in the experiment on Escherichia coli [12] was 20 µg/mL (≈ 28.3 µM); in the experiment on Haemophilus influenzae [13], 2.5 µg/mL (≈ 3.54 µM); in the experiment with Staphylococcus aureus [14], 0.08 µg/mL (≈ 0.113 µM); in the experiment with Staphylococcus aureus [15], 0.15 µg/mL (≈ 0.213 µM); with Streptococcus pneumoniae [16], 10 µg/mL (≈ 14.2 µM); against Streptococcus pneumoniae [17], 10 µg/mL (≈ 14.2 µM). The MIC was found to be 10 µg/mL (≈ 14.2 µM) with Streptococcus pneumoniae [18]; 0.02 µg/mL (≈ 0.0283 µM) with Streptococcus pyogenes [19]; 40 µg/mL (≈ 56.7 µM) against Staphylococcus aureus [9]; 0.08 µg/mL (≈ 0.113 µM) in the experiment with Streptococcus pneumoniae [21]; 0.02 µg/mL (≈ 0.0283 µM) with Streptococcus pneumoniae [22].

The values above are taken from ChEMBL document CHEMBL1131863, “Synthesis and antibacterial activity of HMR 3647 a new ketolide highly potent against erythromycin-resistant and susceptible pathogens” (1999).
